Measured values reported in paper PMC3156232, “Rapid Probing of Biological Surfaces with a Sparse-Matrix Peptide Library” (PLoS ONE, 2011).
“Also recorded” adds a separate entry of the source.

Tests used:
[1] = Tooth section binding by confocal laser scanning microscopy; settings: sectioned human teeth, FAM-labeled peptide, CLSM; result in words
Source text: For tooth binding assays, FAM-labeled pilot matrix peptides were collected into four pools of 9 peptides each. Peptides were screened by exposing pools to sections taken from a collection of anonymous human teeth (extracted during normal clinical practice), followed by visualization of the samples by Confocal Laser Scanning Microscopy (CLSM).

[2] = tested on: wild type S. mutans (UA140); experiment: Fluorescence microscopy binding to S. mutans; set-up: species or system Streptococcus mutans; settings: FAM-labeled peptide, result in words
Protocol: (§1) Peptide samples were prepared at a concentration of 25 µM for screening. For bacterial and yeast binding assays, cells were grown overnight, washed, and immobilized in a polylysine-coated 96-well plate, except in the case of S. mutans biofilms, where 10^5 cells were inoculated into 400 µl of Todd Hewitt broth in 48-well plates and biofilms were grown anaerobically for 24 hr. FAM-labeled peptides were applied to immobilized cell, yeast, and bacterial cultures, incubated for 10 minutes and washed extensively to remove unbound peptide. Samples were visualized by fluorescence microscopy (Nikon E400). For each peptide, both brightfield and fluorescence images were collected with the manufacturer-supplied software (SPOT, Diagnostic Instruments, Sterling Heights, MI). Post-collection, the locations of cells and background regions were determined using the brightfield images; those regions were then selected in the fluorescence images for quantitation of pixel values for determination of relative fluorescence intensities using The GIMP (http://www.gimp.org), [33]. Due to the variation in the levels of binding of the peptide to the well, these values are represented as bacterial fluorescence/background fluorescence, in order to remove the effects of precipitation or nonspecific binding from the final measurement.

S. mutans gtfB mutant = experiment: Fluorescence microscopy binding to surface mutant; set-up: species or system Streptococcus mutans; settings: FAM-labeled peptide, result in words
Protocol: as §1

wild type M. xanthus = experiment: Fluorescence microscopy screening of FAM-labeled peptides against immobilized cells; assay type: binding, Myxococcus xanthus; settings: FAM-labeled peptide 25 µM, 10 minutes, result in words
Protocol: as §1

S. aureus = experiment: as above; assay type: binding, Staphylococcus aureus; settings: FAM-labeled peptide 25 µM, 10 minutes, washed, result in words
Protocol: as §1

Row | Sequence | Binding to tooth dentin [1] | Binding to wild type S. mutans [2] | Binding to S. mutans gtfB mutant unable to synthesize extracellular glucan (S. mutans gtfB mutant) | Binding to wild-type M. xanthus cells (fluorescence staining) (wild type M. xanthus) | Binding to tooth enamel and enamel-proximal region of the dentino-enamel junction [1] | Binding to immobilized S. aureus cells (fluorescence staining) (S. aureus)
1 | AMQDAMNEM [Pilot Library E6] | bound selectively to dentin |  |  |  |  | 
2 | IWHSWISTW [sma24] |  | good binding activity and specificity; also recorded: strong binding | reduced binding |  |  | 
3 | AMKDAMERM [Pilot Library E4] | no obvious binding |  |  | preferentially binds | clear binding | preferentially binds
